In patent publication US20180208622A1, “STABLE CRYSTALLINE FORM OF REGADENOSON” (SUN PHARMACEUTICAL INDUSTRIES LIMITED, priority 2015, published 2018):
Values belong to the compound of their own block, whether it stands above or below them.

What was measured:
[1] = WO2008143667A1, cited from earlier work
[2] = Stability studies of crystal Form S, followed by XRPD; format: physicochemical
Description: XRD: X-ray powder diffraction analyses were carried out on a PANalytical Empyrean X-ray powder diffractometer using Cu K alpha radiation. The instrument was equipped with a line focus X-ray tube, and the voltage and amperage were set to 45 kV and 40 mA respectively. The scanning rate was set as 10 second per step and step size is set as 0.01°. The diffractometer was equipped with Pixcel^1D solid state detector and rotating sample stage. X-ray diffractometer was used to record diffractogram from 4° to 40° (2-theta).

Compound: CNC(=O)c1cnn(-c2nc(N)c3ncn([C@@H]4O[C@H](CO)[C@@H](O)[C@H]4O)c3n2)c1 [polymorph C, adenosine, 2-[4-[(methylamino)carbonyl]-1H-pyrazol-1-yl]]
- behaviour at elevated temperatures ([1]; elevated temperatures): desolvates to an unstable form

Compound: CNC(=O)c1cnn(-c2nc(N)c3ncn([C@@H]4O[C@H](CO)[C@@H](O)[C@H]4O)c3n2)c1 [Form A, adenosine, 2-[4-[(methylamino)carbonyl]-1H-pyrazol-1-yl]]
- stability of the crystalline form ([1]; among Form A, Form B, Form C and amorphous product): most stable form

- change in XRPD under stability conditions ([2]; 25° C. and 60% relative humidity for more than 6 months (FIG. 3)): no significant change
- change in XRPD in accelerated stability studies ([2]; 40° C. and 75% relative humidity for more than 2 months (FIG. 2)): did not change significantly
- stability when stored ([2]; stored at 25° C. and 60% relative humidity for at least 6 months): stable
Compound: CNC(=O)c1cnn(-c2nc(N)c3ncn([C@@H]4O[C@H](CO)C(O)C4O)c3n2)c1 (some centres unmarked) [Form S, adenosine, 2-[4-[(methylamino)carbonyl]-1H-pyrazol-1-yl]]
